The target in assay [1] is T1, Histidine tagged HIF-2α protein containing PAS-B domain (240-350) (Homo sapiens, UniProt Q99814).
T1 construct: Histidine tagged HIF-2α protein containing PAS-B domain (240-350) was prepared and purified in house; made in house
Kind of assay: HIF-2α Scintillation Proximity Assay (SPA). The settings on record: 50 nM HIF-2α protein, 25 nM radiolabeled tracer; read-out: HIF-2α Scintillation Proximity Assay. Format: binding. The method, then:
Tritium labeled compound N-(3-chlorophenyl)-4-nitro-2,1,3-benzoxadiazol-5-amine was obtained from American Radiolabeled Chemicals Inc. and copper chelate PVT SPA beads were from PerkinElmer (Cat #RPNQ0095). Histidine tagged HIF-2α protein containing PAS-B domain (240-350) was prepared and purified in house.
Compounds solubilized in DMSO were dispensed into a white 384-well polystyrene non-binding flat clear bottom plate (Greiner Bio-One, Cat #781903) using an HP D300 dispenser. Ten microliters of HIS-tagged HIF-2α protein in buffer (25 mM Tris-HCl, pH 7.4, 150 mM NaCl, 0.15% BSA and 0.001% Tween 20) was added to the compound wells and allowed to incubate for 1 hour at room temperature. Ten microliters of SPA bead mix were added to the wells and incubated for an additional 45 minutes, followed by 10 ul of ^3H-tracer solution. Final assay conditions comprised 50 nM HIF-2α protein, 25 nM radiolabeled tracer and 3 ug beads per well with compounds in 2% DMSO. The plate was read using a MicroBeta Microplate Counter (PerkinElmer) for luminescence detection. The IC50 values of the test compounds were determined from compound dose response curves fitted using a standard four parameter fit equation and are reported in Table 1.
(In general: In a scintillation proximity assay essentially only radioactivity close to the scintillant gives light.)

For assay [2], the target named is T2, HIF-2α (Homo sapiens, UniProt Q99814).
T2 construct: endogenous in cells; host or cells: 786-O cells (ATCC CRL-1932) stably carrying the Cignal Lenti HIF Luc Reporter
T2 sequence (Q99814 whole entry): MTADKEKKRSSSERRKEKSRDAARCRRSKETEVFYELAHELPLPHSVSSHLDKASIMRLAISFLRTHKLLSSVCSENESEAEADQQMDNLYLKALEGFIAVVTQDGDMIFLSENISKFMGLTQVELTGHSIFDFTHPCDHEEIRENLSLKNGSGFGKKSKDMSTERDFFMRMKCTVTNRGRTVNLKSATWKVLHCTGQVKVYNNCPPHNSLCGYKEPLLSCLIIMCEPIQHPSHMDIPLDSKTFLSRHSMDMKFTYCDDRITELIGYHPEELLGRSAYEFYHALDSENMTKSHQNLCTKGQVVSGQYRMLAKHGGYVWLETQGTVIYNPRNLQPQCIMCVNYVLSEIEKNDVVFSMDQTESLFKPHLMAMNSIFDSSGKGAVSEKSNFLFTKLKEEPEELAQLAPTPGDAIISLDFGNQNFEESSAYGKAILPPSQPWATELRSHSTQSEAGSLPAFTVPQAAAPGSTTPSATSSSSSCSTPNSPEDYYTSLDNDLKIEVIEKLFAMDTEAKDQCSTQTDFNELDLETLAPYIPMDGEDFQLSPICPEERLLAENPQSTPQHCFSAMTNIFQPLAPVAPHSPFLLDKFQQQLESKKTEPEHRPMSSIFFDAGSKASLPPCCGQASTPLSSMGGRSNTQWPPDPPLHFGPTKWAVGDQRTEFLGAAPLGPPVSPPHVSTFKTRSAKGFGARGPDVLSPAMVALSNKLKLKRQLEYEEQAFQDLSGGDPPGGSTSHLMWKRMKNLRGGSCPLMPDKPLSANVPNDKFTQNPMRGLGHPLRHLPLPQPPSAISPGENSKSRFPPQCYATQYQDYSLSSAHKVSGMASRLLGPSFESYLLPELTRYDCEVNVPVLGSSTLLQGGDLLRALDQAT
Kind of assay: HIF-2α Luciferase Reporter Assay. The class given is cell-based. The settings on record: HIF-Luc-786-0 cells, 20 hours incubation, luciferase activity; read-out: HIF-2α Luciferase Assay. How it is done:
Stable cell lines were generated by transducing 786-O cells (ATCC, CRL-1932) with Cignal Lenti HIF Luc Reporter lentivirus (CLS-007L, Qiagen) according to the manufacturer's guidelines. In brief, 0.3×10^6 786-0 cells were transduced with lentivirus at a Multiplicity of Infection (MOI) of 25 for 24 hours. After transduction, cells were replenished with fresh RPMI 1640 Medium (Cat. No. 11875085, Thermo Fisher,) supplemented with 10% FBS (Cat. No. A3160502, Gibco), 2 mM GlutaMax (Cat. No. 35050-061, Invitrogen) and 100 units of penicillin and 100 μg of streptomycin/mL (Cat. No 15070063, Thermo Fisher) for another 24 hours. Antibiotic selection was performed in cell media containing 4 μg/mL of Puromycin. After 7 days of antibiotic selection, stable pools of surviving cells were expanded and used in a luciferase reporter assay.
On day one, 20 uL of HIF-Luc-786-0 cells in OptiMem (Cat. No. 31985088, Thermo Fisher) were seeded into each well of a 384 well white opaque plate (Corning 3570) and incubated at 37° C. and 5% CO2. Twenty microliters of 2× test compounds in OptiMem were added to cells after 4 hours of incubation. Final assay conditions comprised 20,000 cells per well in 1% DMSO with test compound concentrations ranging from 50 uM to 0 uM. After 20 hours incubation at 37° C. and 5% CO2, luciferase activity was determined using ONE-Glo Luciferase Assay Reagent (E6110, Promega) following the manufacture's recommended procedure. Briefly, 40 uL of ONE-Glo luciferase reagents were added to each well and luciferase signals were measured using an Envision 2102 Multilabel Reader. Percentage maximum activity in each test well was calculated based on DMSO (maximum activity) and no cell control wells (baseline activity). The IC50 values of the test compounds were determined from compound dose response curves fitted using a standard four parameter fit equation.

Structures are written as SMILES.

T1 sequence (Q99814 240-350): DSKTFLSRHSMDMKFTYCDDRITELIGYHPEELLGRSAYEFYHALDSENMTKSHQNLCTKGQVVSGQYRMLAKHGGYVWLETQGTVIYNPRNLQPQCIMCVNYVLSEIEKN

Take `O=S(=O)(c1ccc(Oc2ccc(F)c(Cl)c2)c2cn[nH]c12)C(F)(F)F` [Example 38, 4-(3-Chloro-4-fluorophenoxy)-7-(trifluoromethylsulfonyl)-1H-indazole]: the IC50 in assay [1] and in assay [2] was 1 to 10 µM each time.
Take `N#Cc1cncc(Oc2ccc(S(=O)(=O)C(F)(F)F)c3[nH]ncc23)c1` [Example 24, 5-[(7-Trifluoromethanesulfonyl-1H-indazol-4-yl)oxy]pyridine-3-carbonitrile]: the IC50 in assay [1] and in assay [2] was 1 to 10 µM each time.
For the compound `N#Cc1ccc(Cl)c(Oc2ccc(S(=O)(=O)C(F)(F)F)c3[nH]ncc23)c1` [Example 43, 4-Chloro-3-[(7-trifluoromethanesulfonyl-1H-indazol-4-yl)oxy]benzonitrile], the IC50 in assay [2] was 1 to 10 µM.
`CS(=O)(=O)c1ccc(Oc2cc(F)cc(Cl)c2)c2c(Cl)n[nH]c12` [Example 9, 3-Chloro-4-(3-chloro-5-fluorophenoxy)-7-methanesulfonyl-1H-indazole]: the values for the IC50 in assay [1] and in assay [2] were over 10 µM and 1 to 10 µM, respectively.
`CS(=O)(=O)c1ccc(Oc2cc(F)cc(C#N)c2)c2c(C#N)n[nH]c12` [Example 10, 4-(3-Cyano-5-fluorophenoxy)-7-methanesulfonyl-1H-indazole-3-carbonitrile]: the IC50 in assay [1] was over 10 µM; in assay [2] it was 1 to 10 µM.
For `N#Cc1cc(Cl)cc(Oc2ccc(S(=O)(=O)C(F)(F)F)c3[nH]ncc23)c1` [Example 27, 3-Chloro-5-[[7-(trifluoromethylsulfonyl)-1H-indazol-4-yl]oxy]benzonitrile], the IC50 is under 1 µM in assay [1] and 1 to 10 µM in assay [2].
Take `N#Cc1cc(F)cc(Nc2cncc3[nH]ncc23)c1` [Example 66, 3-Fluoro-5-({1H-pyrazolo[3,4-c]pyridin-4-yl}amino)benzonitrile]: the IC50 in assay [2] lay within 1 to 10 µM.
For the compound `N#Cc1cc(C#N)cc(Oc2ccc(S(=O)(=O)C(F)(F)F)c3[nH]ncc23)c1` [Example 22, 5-[(7-Trifluoromethanesulfonyl-1H-indazol-4-yl)oxy]benzene-1,3-dicarbonitrile], the IC50 in assay [1] was 1 to 10 µM.
Consider `N#Cc1cc(F)cc(Nc2cc(Cl)cc3[nH]ncc23)c1` [Example 65, 3-[(6-Chloro-1H-indazol-4-yl)amino]-5-florobenzonitrile], for which the IC50 in assay [2] fell in the range of 1 to 10 µM.
Turning to `CS(=O)(=O)c1ccc(Oc2ccc(Cl)c(Cl)c2)c2cn[nH]c12` [Example 6, 4-(3,4-Dichlorophenoxy)-7-methanesulfonyl-1H-indazole], in assay [2], the IC50 lay in the range of 1 to 10 µM.
Consider `N#Cc1cc(F)cc(Nc2ncnc3[nH]ncc23)c1` [Example 67, 3-Fluoro-5-({1H-pyrazolo[3,4-d]pyrimidin-4-yl}amino)benzonitrile], for which the IC50 in assay [2] is 1 to 10 µM.
As for `CS(=O)(=O)c1ccc(Oc2cc(F)cc(C#N)c2)c2cn[nH]c12` [Example 3, 3-Fluoro-5-[(7-methanesulfonyl-1H-indazol-4-yl)oxy]benzonitrile], the IC50 in assay [2] is over 10 µM.
Take `N#Cc1ccc(F)c(Oc2ccc(S(=O)(=O)C(F)(F)F)c3[nH]ncc23)c1` [Example 44, 4-Fluoro-3-[(7-trifluoromethanesulfonyl-1H-indazol-4-yl)oxy]benzonitrile]: in assay [2], the IC50 was over 10 µM.
Same read-out and setting: the result for `CS(=O)(=O)c1ccc(Oc2cccc(Cl)c2)c2cn[nH]c12` [Example 5, 4-(3-Chlorophenoxy)-7-methanesulfonyl-1H-indazole] reads 1 to 10 µM; that for `O=S(=O)(c1ccc(N2CCCc3cc(F)cc(F)c32)c2cn[nH]c12)C(F)(F)F` [Example 49, 6,8-Difluoro-1-(7-trifluoromethanesulfonyl-1H-indazol-4-yl)-1,2,3,4-tetrahydroquinoline], over 10 µM.
Consider `CS(=O)(=O)c1ccc(Nc2cc(F)cc(C#N)c2)c2cn[nH]c12` [Example 1, 3-Fluoro-5-[(7-methanesulfonyl-1H-indazol-4-yl)amino]benzonitrile], for which the IC50 in assay [2] lay in the range of 1 to 10 µM.
